Assay results taken from patent US8697667B2, “Cyclodextrin-modified polyamines for delivery of therapeutic molecules” (Rutgers, The State University of New Jersey, priority 2010, dated 2014).
Like-named read-outs stand apart in the source and are kept apart here.

Legend:
[1] = Aqueous solubility; assay type: physicochemical
[2] = system: glioblastoma cells; test: Annexin-V/Propidium Iodide apoptosis assay; assay type: cell-based; details: combined with siRNA against EGFRvIII (200 nM), polymer 100 μM; SAHA 5 μM, erlotinib 30 μM; versus individual treatments
Excerpt: Cells were harvested by trypsinization and stained using an Annexin V FITC Apoptosis Detection kit (Roche, Cambridge, Mass.) according to the manufacturer's protocol. The stained cells were immediately analyzed by flow cytometry (FACScan; Becton Dickinson, Franklin Lake, N.J.). Early apoptotic cells with exposed phosphatidylserine but intact cell membranes bound to Annexin V-FITC but excluded propidium iodide. Cells in necrotic or late apoptotic stages were labeled with both Annexin V-FITC and propidium iodide.

Row | aqueous solubility [1] [g/100 mL] | aqueous solubility ([1]; drug loaded into / complexed with β-CD cavity) [mg/100 mL] | SMILES | induction of apoptosis (Annexin-V-FITC-positive cells) [2]
1 | < 1.8 |  | OC[C@H]1O[C@@H]2O[C@H]3[C@H](O)[C@@H](O)[C@@H](O[C@H]4[C@H](O)[C@@H](O)[C@@H](O[C@H]5[C@H](O)[C@@H](O)[C@@H](O[C@H]6[C@H](O)[C@@H](O)[C@@H](O[C@H]7[C@H](O)[C@@H](O)[C@@H](O[C@H]8[C@H](O)[C@@H](O)[C@@H](O[C@H]1[C@H](O)[C@H]2O)O[C@@H]8CO)O[C@@H]7CO)O[C@@H]6CO)O[C@@H]5CO)O[C@@H]4CO)O[C@@H]3CO [CD, β-cyclodextrin] | 
2 |  |  | O=C(CCCCCCC(=O)Nc1ccccc1)NO [SAHA, suberoylanilide hydroxamic acid] | greater induction of apoptosis
3 |  | 178 | C#Cc1cccc(Nc2ncnc3cc(OCCOC)c(OCCOC)cc23)c1 [erlotinib, N-(3-ethynylphenyl)-6,7-bis(2-methoxyethoxy)quinazolin-4-amine] | cooperative induction of apoptosis
